Measured values: the NIST ThermoML archive (doi:10.1021/je050050p)
Numbers after ± are expanded uncertainties.

Experiment: xn = mol fraction of the nth substance listed
Details: Liquid, Vibrating tube method

CN(C)C=O [dimethylformamide] + O=C=O
Details	mass density [kg/m3]
332.98 K, 14003 kPa, x2 = 0.4268	937.07 ± 0.41
332.98 K, 14011 kPa, x2 = 0.9311	761.83 ± 0.54
332.98 K, 15006 kPa, x2 = 0.4268	938.28 ± 0.41
332.98 K, 15009 kPa, x2 = 0.9311	776.41 ± 0.52
332.98 K, 16024 kPa, x2 = 0.4268	939.46 ± 0.41
332.98 K, 16030 kPa, x2 = 0.9311	789.22 ± 0.51
332.98 K, 17017 kPa, x2 = 0.9311	800.11 ± 0.5
332.98 K, 17036 kPa, x2 = 0.4268	940.67 ± 0.41
332.98 K, 18002 kPa, x2 = 0.9311	809.93 ± 0.49
332.98 K, 18017 kPa, x2 = 0.4268	941.85 ± 0.41
332.98 K, 19025 kPa, x2 = 0.4268	943 ± 0.41
332.98 K, 19031 kPa, x2 = 0.9311	819.29 ± 0.48
332.98 K, 20004 kPa, x2 = 0.4268	944.1 ± 0.41
332.98 K, 20025 kPa, x2 = 0.9311	827.57 ± 0.48
332.98 K, 21001 kPa, x2 = 0.4268	945.19 ± 0.41
332.98 K, 21030 kPa, x2 = 0.9311	835.37 ± 0.47
332.98 K, 21993 kPa, x2 = 0.4268	946.33 ± 0.41
332.98 K, 21994 kPa, x2 = 0.9311	842.35 ± 0.47
332.98 K, 22998 kPa, x2 = 0.9311	849.15 ± 0.47
332.98 K, 23015 kPa, x2 = 0.4268	947.45 ± 0.41
332.98 K, 24024 kPa, x2 = 0.9311	855.75 ± 0.46
332.98 K, 24114 kPa, x2 = 0.4268	948.62 ± 0.41
332.98 K, 25011 kPa, x2 = 0.9311	861.78 ± 0.46
332.98 K, 25061 kPa, x2 = 0.4268	949.68 ± 0.41
332.99 K, 6007 kPa, x2 = 0.2876	926.13 ± 0.41
332.99 K, 6998 kPa, x2 = 0.2876	927.15 ± 0.41
332.99 K, 7991 kPa, x2 = 0.2876	928.18 ± 0.41
332.99 K, 9011 kPa, x2 = 0.4461	930.78 ± 0.41
332.99 K, 9021 kPa, x2 = 0.2876	929.22 ± 0.41
332.99 K, 9993 kPa, x2 = 0.4461	931.95 ± 0.41
332.99 K, 10024 kPa, x2 = 0.2876	930.23 ± 0.41
332.99 K, 11006 kPa, x2 = 0.2876	931.19 ± 0.41
332.99 K, 11013 kPa, x2 = 0.4461	933.65 ± 0.41
332.99 K, 12003 kPa, x2 = 0.4461	934.9 ± 0.41
332.99 K, 12020 kPa, x2 = 0.2876	932.19 ± 0.41
332.99 K, 13012 kPa, x2 = 0.4461	936.18 ± 0.41
332.99 K, 13024 kPa, x2 = 0.2876	933.16 ± 0.41
332.99 K, 13991 kPa, x2 = 0.4461	937.43 ± 0.41
332.99 K, 14028 kPa, x2 = 0.2876	934.12 ± 0.41
332.99 K, 15009 kPa, x2 = 0.4461	938.71 ± 0.41
332.99 K, 15010 kPa, x2 = 0.2876	935.07 ± 0.41
332.99 K, 16010 kPa, x2 = 0.2876	936.01 ± 0.41
332.99 K, 16010 kPa, x2 = 0.4461	939.93 ± 0.41
332.99 K, 17001 kPa, x2 = 0.4461	941.16 ± 0.41
332.99 K, 17003 kPa, x2 = 0.2876	936.96 ± 0.41
332.99 K, 17994 kPa, x2 = 0.4461	942.35 ± 0.41
332.99 K, 18005 kPa, x2 = 0.2876	937.87 ± 0.41
332.99 K, 18988 kPa, x2 = 0.4461	943.52 ± 0.41
332.99 K, 19008 kPa, x2 = 0.2876	938.78 ± 0.41
332.99 K, 20001 kPa, x2 = 0.4461	944.69 ± 0.41
332.99 K, 20007 kPa, x2 = 0.2876	939.69 ± 0.41
332.99 K, 20995 kPa, x2 = 0.4461	945.88 ± 0.41
332.99 K, 21004 kPa, x2 = 0.2876	940.6 ± 0.41
332.99 K, 21990 kPa, x2 = 0.2876	941.48 ± 0.41
332.99 K, 21998 kPa, x2 = 0.4461	947.03 ± 0.41
332.99 K, 23023 kPa, x2 = 0.4461	948.19 ± 0.41
332.99 K, 23037 kPa, x2 = 0.2876	942.42 ± 0.41
332.99 K, 23982 kPa, x2 = 0.4461	949.27 ± 0.41
332.99 K, 24000 kPa, x2 = 0.2876	943.28 ± 0.41
332.99 K, 24996 kPa, x2 = 0.2876	944.13 ± 0.41
332.99 K, 25021 kPa, x2 = 0.4461	950.44 ± 0.41
333 K, 7019 kPa, x2 = 0.4502	928.11 ± 0.41
333 K, 8001 kPa, x2 = 0.4502	929.45 ± 0.41
333 K, 8029 kPa, x2 = 0.4068	930.01 ± 0.41
333 K, 9015 kPa, x2 = 0.4502	930.81 ± 0.41
333 K, 9016 kPa, x2 = 0.4068	931.23 ± 0.41
333 K, 10008 kPa, x2 = 0.4068	932.42 ± 0.41
333 K, 10013 kPa, x2 = 0.4502	932.14 ± 0.41
333 K, 11006 kPa, x2 = 0.4502	933.42 ± 0.41
333 K, 11025 kPa, x2 = 0.4068	933.65 ± 0.41
333 K, 12004 kPa, x2 = 0.4502	934.74 ± 0.41
333 K, 12006 kPa, x2 = 0.4068	934.81 ± 0.41
333 K, 13019 kPa, x2 = 0.4068	936.04 ± 0.41
333 K, 13021 kPa, x2 = 0.4502	936.04 ± 0.41
333 K, 14010 kPa, x2 = 0.4068	937.15 ± 0.41
333 K, 14019 kPa, x2 = 0.4502	937.31 ± 0.41
333 K, 15001 kPa, x2 = 0.4502	938.54 ± 0.41
333 K, 15002 kPa, x2 = 0.4068	938.28 ± 0.41
333 K, 16010 kPa, x2 = 0.4068	939.41 ± 0.41
333 K, 16014 kPa, x2 = 0.4502	939.78 ± 0.41
333 K, 16998 kPa, x2 = 0.4068	940.54 ± 0.41
333 K, 17013 kPa, x2 = 0.4502	941.01 ± 0.41
333 K, 18013 kPa, x2 = 0.4068	941.67 ± 0.41
